Reference: patent US20080009025A1, “PROTEIN KINASE REGULATION” (priority 1999, published 2008)
Where a SMILES comes first, the peptide text is derived from it.

What was measured:
PDK1 [1] = assay: PDK1 activity towards synthetic peptide substrates T308tide or PDKtide; assay type: biochemical, human; conditions: PDK1 L155 mutants
Method: (§1) FIG. 12. PDK1 is activated and stabilised through its interaction with PIFtide. (A) GST-PDK1 activity was measured in the presence of increasing concentrations of wild type (wt) PIFtide (closed circles) or a mutant D978A PIFtide (open circles) using the synthetic peptide substrate termed T308tide, as described in Material and Methods. The data was fitted to a hyperbola using the Kaleidagraph™ software. The connection needed to obtain 50% activation of PDK1 was […] for wt-PIFtide and 1.1 μM for D978A-PIFtide. The assay shown was performed in triplicate and there was less than 5% difference between each assay. Similar results were obtained in 2 further experiments (B)—The wild type GST-PDK1 (circles) or the L155D mutant of GST-PDK1 (squares) was incubated in the presence (closed symbols) or absence (open symbols) of […] PIFtife and then for 2 min at the indicated temperatures, rapidly brought to 0° C. (see Materials and Methods), and 2 min later assayed at 30° C. for 10 min using T308tide as substrate. The activity of PDK1 obtained by incubation at 30° C. was taken as 100%. The assay shown was performed in duplicate with similar results obtained in two separate experiments.
(§2) FIG. 14. […] (A) His-PDK1 was assayed for activity using as substrate the indicated concentration of either PDKtide (open triangles) or T308tide (open circles). (B) HIS-PDK1 was assayed for activity in the presence if PDKtide (25 μM closed triangles) or T308tide (100 μM closed circles) in the presence of the indicated concentrations of PIFtide. The assay was performed in triplicates with less than 5% difference between the triplicate samples. Similar results were obtained in 3 separate experiments.
(§3) PDK1's ability to phosphorylate Thr308 of PKBα was measured using a mutant of GST-PKBα in which Ser473 was mutated to Asp (GST-473D PKBα) in the presence of phospholipid vesicles containing sn-1-stearoyl-2-arachidonoyl-D-PtdIns (3, 4, 5)P3 [13]. The ability of wild type and mutant PDK1 to phosphorylate the synthetic peptides T308tide or PDKtide was carried out in 20 μl assays containing 50 mM Tris/HCl pH 7.5, 0.1% 2-mercaptoethanol 10 mM MgCl2, 100 μM [γ^32P]ATP (˜500 cpm/pmol) 0.5 μM microcystin-LR.PDK1 and the peptide concentrations indicated under Results. After incubation for 10 min at 30° C. the reaction was stopped by addition of 20 μl of 150 mM phosphoric acid. 35 μl of the resultant mixture was spotted into P81 phosphocellulose paper (2×2 cm) and the papers washed and analysed as described previously for assays of MAP kinase. […] Control assays were carried out in parallel in which either PDK1, or peptide substrate were omitted; these values were always less than 5% of the activity measured in the presence of these reagents. […]

PDK1 [2] = target: T1, PDK1 (Homo sapiens, UniProt O15530); assay: as above; assay type: biochemical; conditions: substrate PDKtide
T1 construct: Full length PDK1 (residues 1-556); made in house; host or cells: 293 cells
T1 sequence (O15530 52-556): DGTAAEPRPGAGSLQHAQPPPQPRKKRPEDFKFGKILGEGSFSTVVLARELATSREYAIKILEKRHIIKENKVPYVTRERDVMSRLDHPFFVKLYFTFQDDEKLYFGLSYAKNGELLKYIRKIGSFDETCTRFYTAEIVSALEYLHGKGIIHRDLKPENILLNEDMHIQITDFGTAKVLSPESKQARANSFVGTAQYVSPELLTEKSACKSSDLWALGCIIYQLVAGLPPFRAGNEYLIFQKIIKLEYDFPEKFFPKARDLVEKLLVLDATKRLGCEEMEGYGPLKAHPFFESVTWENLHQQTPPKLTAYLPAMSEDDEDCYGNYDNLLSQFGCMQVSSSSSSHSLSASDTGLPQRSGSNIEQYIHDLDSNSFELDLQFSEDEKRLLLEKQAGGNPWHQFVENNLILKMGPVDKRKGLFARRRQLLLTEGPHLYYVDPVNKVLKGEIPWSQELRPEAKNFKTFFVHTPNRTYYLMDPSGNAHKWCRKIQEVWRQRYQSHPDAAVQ
Method: as §1, §2, §3

PKBα = assay: IGF1-induced activation and Ser473 phosphorylation of HA-PKBα in co-transfected 293 cells; assay type: cell-based, human
Method: FIG. 4. […] 293 cells were co-transfected with constructs expressing the wild type full length HA-PKBα with either GST-PIF or GST. 24 h post transfection the cells were serum starved for 16 h and then stimulated for 15 min with 100 nM IGF1. The cells were lysed and HA-PKBα was immunoprecipitated and assayed as described in Methods. Protein from each lysate (10 μg) was electrophoresed on a 10% SDS/polyarylamide gel and immunoblotted using HA-antibody or the S473-P antibody. The HA-PKBα activities shown are the averages ±SEM for a single experiment carried out in triplicate, similar results were obtained in 3 separate experiments.
293 cells cultured on 10 cm diameter dishes in Dulbecco's Modified Eagle's Medium containing 10% (by vol) foetal bovine serum, were transfected with 2 μg of DNA construct encoding either wild type or mutant HA-p70 S6K or HA-PKBα, and 10 μg of DNA construct encoding either GST-PIF, GST-F977A-PIF, GST, Myc-PDK1, kinase-dead Myc-PDK1, or the empty pCMV5 vector using a modified calcium phosphate method. 24 h post transfection the cells were deprived of serum for 16 h, and exposed to IGF1 (100 nM) for the time indicated. […] The protein concentrations of the lysates were determined by the Bradford method. […]

Compound | activation of L155A, L155S, L155D and L155E mutants of PDK1 towards T308tide (PDK1 [1]) | effect on the activity of PDK1 towards PDKtide (PDK1 [2]) | IGF1-induced phosphorylation of HA-PKBα at Ser473 (PKBα)
CC[C@H](C)[C@H](NC(=O)[C@H](Cc1ccc(O)cc1)NC(=O)[C@H](CC(=O)O)NC(=O)[C@H](Cc1ccccc1)NC(=O)[C@H](CC(=O)O)NC(=O)[C@H](CCCNC(=N)N)NC(=O)[C@H](Cc1ccccc1)NC(=O)[C@H](CCSC)NC(=O)[C@H](CCC(=O)O)NC(=O)[C@H](CCC(N)=O)NC(=O)[C@H](CCC(=O)O)NC(=O)[C@H](CCC(=O)O)NC(=O)[C@H](CCC(=O)O)NC(=O)[C@H](CO)NC(=O)[C@H](CC(C)C)NC(=O)[C@@H](NC(=O)[C@H](CCCNC(=N)N)NC(=O)[C@@H]1CCCN1C(=O)[C@H](CCC(=O)O)NC(=O)[C@@H](N)CCCNC(=N)N)[C@@H](C)CC)C(=O)N[C@@H](C)C(=O)N[C@@H](CC(=O)O)C(=O)N[C@@H](Cc1c[nH]c2ccccc12)C(=O)N[C@@H](CS)C(=O)O [PIFtide] (H-REPRILSEEEQEMFRDFDYIADWC-OH; N-terminus and C-terminus assumed) | did not further activate | inhibited | –
GST-PIF: glutathione S-transferase fused to the last 77 residues of PRK2 (PIF) | – | – | did not inhibit or potentiate
